Measured values from publication PMC11695783 (Frontiers in Pharmacology, 2024).
Several values for one entry are separate records, joined by “and”; a condition that tells them apart may be missing. Equal values may be shown once.

Columns and labels:
[1] = system: CXCL1; test: CXCL1 in BALF of M. pneumoniae-infected mice (ELISA); assay type: in vivo, BALB/c mice; conditions: for CXCL1 in BALF (AV): group AV; for CXCL1 in BALF: individual mice
Experimental: (§1) Adult BALB/c mice (20–22 g) were divided into a control group, a positive group, and compound 16C groups at low (20 mg/kg), medium (40 mg/kg), and high-dose (80 mg/kg) levels and oral and intramuscular tiamulin treatment groups (40 mg/kg). We formulated the above dose range based on the dose at which tiamulin was approved for injection (10–20 mg/kg) and the dose previously reported (45 mg/kg) ([EMA, 1999]; [Xiao et al., 2016]). In summary, we selected similar doses for compound 16C in vivo study. 40 mg/kg was used as an intermediate value, one-half of it as a low dose, and two times of it as a high dose. To prepare the challenge solution, logarithmic phase culture suspensions were centrifuged at 1700 g for 10 min, and the pellets were suspended in sterile PBS to obtain 1 × 10^9 CFU/mL. Before the challenge, mice were anesthetized with tribromoethanol (250 mg/kg, IP). Mice in the control groups were intratracheally inoculated with sterile PBS, whereas mice in the other groups were intratracheally challenged with 50 μL (1 × 10^9 CFU/mL) M. pneumoniae suspension once a day for 3 days. Compound 16C and tiamulin (tiamulin-IM group) dissolved using the method mentioned in pharmacokinetic studies, and the tiamulin fumarate soluble powder was dissolved in ddH2O for oral administration. After the final challenge, antibiotics were administered at low, medium, and high-dose levels (see above) at 10 a.m. and 10 p.m. daily for 4 consecutive days. Normal saline containing 5% DMSO and 5% Tween-80 was administered as control and positive groups by thigh intramuscular injection. To compare the efficacy of compound 16C and tiamulin under the same route of administration, we used the original tiamulin for intramuscular administration in the same formulation. On the other hand, tiamulin fumarate soluble powder, approved for oral administration to treat animal mycoplasma diseases in China, was administered to mice by gavage. Based on a clinical study of lefamulin in community-acquired bacterial pneumonia (CABP), subjects were administered twice a day and the 96 ± 24 h of starting treatment was an essential point for early clinical response (ECR) ([Paukner et al., 2022]). We therefore stopped treatment at 96 h and sampled at 192 h to explore whether the disease worsened after cessation of treatment. Bronchoalveolar lavage fluid (BALF) and lungs were collected at 0, 96, 192 h (Samples of 0 h were collected before starting treatment, and mice were fed ad libitum without drug treatment during 96–192 h) after the first dose, BALF for cytokine and cytological analysis and lung for histopathological evaluation.
(§2) Bronchoalveolar lavage was performed according to a standardized method ([Van Hoecke et al., 2017]). BALF was obtained following infusion of 0.5 mL PBS via tracheal cannulation into the lung twice (total 1 mL), and 200 µL was used for mycoplasma counts. The remaining BALF was centrifuged at 300 g for 10 min to separate the debris. The supernatants were stored at −80°C, and the debris was resuspended in the same volume of PBS containing red blood cell lysis buffer. A hemocytometer was used to count total cell numbers in BALF, and cell smears (Diff-Quik staining) were prepared to calculate the percentages of neutrophils, macrophages, and lymphocytes. IFN-γ, TNF-α, and CXCL1 levels in BALF samples were assessed using commercial ELISA kits using guidelines recommended by the manufacturer (Elabscience, Wuhan, China). Parallel data for each experimental group at each time point were obtained from six different mice.

[2] = system: TNF-α; test: TNF-α in BALF of M. pneumoniae-infected mice (ELISA); assay type: in vivo, BALB/c mice; conditions: for TNF-α in BALF (AV): group AV; for TNF-α in BALF: individual mice
Experimental: as §1, §2

[3] = system: Mycoplasma pneumoniae strain M129 (ATCC 29342); test: Time-kill curves; assay type: cell-based; design: M. pneumoniae count in time-kill curve: unit not given here
How it was run: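 Strain grown at 37 °C, 5% CO2 in modified SP-4 broth (pH 7.4, 20% FBS). Cultures incubated 72 h, sampled every 12 h, 10-fold serially diluted and plated on SP-4 agar; colonies counted after 7 d. Three repeats.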

[4] = tiamulin 40 mg/kg IM, 96 h, listed as Tiamulin-IM
[5] = tiamulin 40 mg/kg IM, 192 h, listed as Tiamulin-IM
[6] = tiamulin 40 mg/kg PO (fumarate soluble powder), 96 h
[7] = tiamulin 40 mg/kg PO (fumarate soluble powder), 192 h

C=C[C@]1(C)C[C@@H](OC(=O)CSCCN(CC)CC)[C@]2(C)[C@H](C)CC[C@]3(CCC(=O)[C@H]32)[C@@H](C)[C@@H]1O [tiamulin, Tiamulin, reference compound]
CXCL1 in BALF (AV) [1, 4]: 35.2692 pg/mL
CXCL1 in BALF [1, 4]: 32.338 pg/mL and 47.9047 pg/mL and 25.7589 pg/mL and 33.1238 pg/mL and 37.221 pg/mL
CXCL1 in BALF (AV) ([1]; tiamulin 40 mg/kg IM, 192 h): 47.4109 pg/mL
CXCL1 in BALF [1, 5]: 47.2576 pg/mL and 36.3942 pg/mL and 46.6093 pg/mL and 59.3827 pg/mL
CXCL1 in BALF (AV) [1, 6]: 40.932 pg/mL
CXCL1 in BALF (AV) [1, 7]: 46.955 pg/mL
TNF-α in BALF (AV) [2, 4]: 25.628 pg/mL
TNF-α in BALF (AV) ([2]; tiamulin 40 mg/kg IM, 96 h, listed as TiamulinIM): 25.4267 pg/mL
TNF-α in BALF [2, 4]: 36.6513 pg/mL and 20.2192 pg/mL and 19.4095 pg/mL and 27.905 pg/mL and 23.325 pg/mL and 26.258 pg/mL
TNF-α in BALF (AV) ([2]; tiamulin 40 mg/kg IM, 192 h): 10.6403 pg/mL
TNF-α in BALF [2, 5]: 0.9088 pg/mL and 8.569 pg/mL and 21.5375 pg/mL and 21.2768 pg/mL
TNF-α in BALF (AV) [2, 6]: 17.9906 pg/mL
TNF-α in BALF (AV) [2, 7]: 9.318 pg/mL
M. pneumoniae count in time-kill curve ([3]; 1×MIC, time 0): 6.339
M. pneumoniae count in time-kill curve ([3]; 1×MIC, time 12): 5.698
M. pneumoniae count in time-kill curve ([3]; 1×MIC, time 24): 6.253
M. pneumoniae count in time-kill curve ([3]; 1×MIC, time 36): 5.423
M. pneumoniae count in time-kill curve ([3]; 1×MIC, time 48): 4.896
M. pneumoniae count in time-kill curve ([3]; 1×MIC, time 60): 5.29
M. pneumoniae count in time-kill curve ([3]; 1×MIC, time 72): 4.787
M. pneumoniae count in time-kill curve ([3]; 2×MIC, time 0): 6.339
M. pneumoniae count in time-kill curve ([3]; 2×MIC, time 12): 6.4123
M. pneumoniae count in time-kill curve ([3]; 2×MIC, time 24): 6.433
M. pneumoniae count in time-kill curve ([3]; 2×MIC, time 36): 4.77
M. pneumoniae count in time-kill curve ([3]; 2×MIC, time 48): 4.196
M. pneumoniae count in time-kill curve ([3]; 2×MIC, time 60): 3.827
M. pneumoniae count in time-kill curve ([3]; 2×MIC, time 72): 3.91
M. pneumoniae count in time-kill curve ([3]; 4×MIC, time 0): 6.339
M. pneumoniae count in time-kill curve ([3]; 4×MIC, time 12): 6.61
M. pneumoniae count in time-kill curve ([3]; 4×MIC, time 24): 6.296
M. pneumoniae count in time-kill curve ([3]; 4×MIC, time 36): 3.841
M. pneumoniae count in time-kill curve ([3]; 4×MIC, time 48): 3.684
M. pneumoniae count in time-kill curve ([3]; 4×MIC, time 60): 3.889
M. pneumoniae count in time-kill curve ([3]; 4×MIC, time 72): 3.638
M. pneumoniae count in time-kill curve ([3]; 8×MIC, time 0): 6.339
M. pneumoniae count in time-kill curve ([3]; 8×MIC, time 12): 6.119
M. pneumoniae count in time-kill curve ([3]; 8×MIC, time 24): 6.148
M. pneumoniae count in time-kill curve ([3]; 8×MIC, time 36): 3.952
M. pneumoniae count in time-kill curve ([3]; 8×MIC, time 48): 3.772
M. pneumoniae count in time-kill curve ([3]; 8×MIC, time 60): 3.839
M. pneumoniae count in time-kill curve ([3]; 8×MIC, time 72): 3.776
M. pneumoniae count in time-kill curve ([3]; 16×MIC, time 0): 6.339
M. pneumoniae count in time-kill curve ([3]; 16×MIC, time 12): 6.238
M. pneumoniae count in time-kill curve ([3]; 16×MIC, time 24): 5.56
M. pneumoniae count in time-kill curve ([3]; 16×MIC, time 36): 4
M. pneumoniae count in time-kill curve ([3]; 16×MIC, time 48): 3.739
M. pneumoniae count in time-kill curve ([3]; 16×MIC, time 60): 3.621
M. pneumoniae count in time-kill curve ([3]; 16×MIC, time 72): 3.801
M. pneumoniae count in time-kill curve ([3]; 32×MIC, time 0): 6.339
M. pneumoniae count in time-kill curve ([3]; 32×MIC, time 12): 6.569
M. pneumoniae count in time-kill curve ([3]; 32×MIC, time 24): 5.262
M. pneumoniae count in time-kill curve ([3]; 32×MIC, time 36): 3.833
M. pneumoniae count in time-kill curve ([3]; 32×MIC, time 48): 3.266
M. pneumoniae count in time-kill curve ([3]; 32×MIC, time 60): 3.249
M. pneumoniae count in time-kill curve ([3]; 32×MIC, time 72): 3.425
M. pneumoniae count in time-kill curve ([3]; 64×MIC, time 0): 6.339
M. pneumoniae count in time-kill curve ([3]; 64×MIC, time 12): 6.625
M. pneumoniae count in time-kill curve ([3]; 64×MIC, time 24): 4.23
M. pneumoniae count in time-kill curve ([3]; 64×MIC, time 36): 3.61
M. pneumoniae count in time-kill curve ([3]; 64×MIC, time 48): 3.065
M. pneumoniae count in time-kill curve ([3]; 64×MIC, time 60): 3.16
M. pneumoniae count in time-kill curve ([3]; 64×MIC, time 72): 3.29
concentration at which bactericidal effect was achieved ([3]; static time-kill, 72 h): 64 × MIC
